PMC4505863 (ACS Chemical Neuroscience, 2014)
Where two headings read alike, the source gives them in different places.

Experiments:
mice = details: cited from earlier work; for doses producing the head twitch in mice: 34−36
5-HT2A receptor [1] = biological target: T1, 5-HT2A receptor (Homo sapiens, UniProt P28223); assay: h5-HT2A affinity, antagonist radioligand [3H]ketanserin; assay type: binding
5-HT2A receptor [2] = biological target: T1, 5-HT2A receptor; assay: h5-HT2A affinity, agonist radioligand [125I]DOI; assay type: binding
human 5-HT2C receptor [3] = biological target: T2, human 5-HT2C receptor (Homo sapiens, UniProt P28335); assay: h5-HT2C affinity, antagonist radioligand [3H]mesulergine; assay type: binding
T2 sequence (P28335 33-458): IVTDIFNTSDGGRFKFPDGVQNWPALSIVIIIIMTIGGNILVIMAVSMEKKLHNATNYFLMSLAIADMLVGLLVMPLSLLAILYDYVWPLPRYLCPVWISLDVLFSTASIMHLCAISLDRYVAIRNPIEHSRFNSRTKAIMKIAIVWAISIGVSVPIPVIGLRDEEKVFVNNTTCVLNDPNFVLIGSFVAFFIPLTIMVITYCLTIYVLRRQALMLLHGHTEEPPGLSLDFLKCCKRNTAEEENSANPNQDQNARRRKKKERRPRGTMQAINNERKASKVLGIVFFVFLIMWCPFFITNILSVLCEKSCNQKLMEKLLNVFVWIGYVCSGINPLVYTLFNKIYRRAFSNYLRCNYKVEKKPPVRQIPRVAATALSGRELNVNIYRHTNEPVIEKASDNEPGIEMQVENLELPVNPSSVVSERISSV

human 5-HT2C receptor [4] = biological target: T2, human 5-HT2C receptor; assay: h5-HT2C affinity, agonist radioligand [125I]DOI; assay type: binding
5-HT2B = 5-HT2B (Homo sapiens, UniProt P41595); assay: PDSP screening affinity 5-HT2B; assay type: binding
Sequence of 5-HT2B (P41595 whole entry): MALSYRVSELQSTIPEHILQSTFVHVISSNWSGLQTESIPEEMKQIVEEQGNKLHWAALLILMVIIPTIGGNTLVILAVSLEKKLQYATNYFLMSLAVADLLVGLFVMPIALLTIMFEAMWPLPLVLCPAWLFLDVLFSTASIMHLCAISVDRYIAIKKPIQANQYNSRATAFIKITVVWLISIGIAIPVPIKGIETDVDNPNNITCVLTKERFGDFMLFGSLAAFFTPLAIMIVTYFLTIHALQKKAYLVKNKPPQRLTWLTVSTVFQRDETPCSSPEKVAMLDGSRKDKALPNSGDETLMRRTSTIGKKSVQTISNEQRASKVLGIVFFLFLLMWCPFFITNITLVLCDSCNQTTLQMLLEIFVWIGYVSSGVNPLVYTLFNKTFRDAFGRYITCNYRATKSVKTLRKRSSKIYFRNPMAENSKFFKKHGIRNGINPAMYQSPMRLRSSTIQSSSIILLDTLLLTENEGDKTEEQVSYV

5-HT1A = biological target: T3, 5-HT1A (Homo sapiens, UniProt P08908); assay: PDSP screening affinity 5-HT1A; assay type: binding
T3 sequence (P08908 1-422): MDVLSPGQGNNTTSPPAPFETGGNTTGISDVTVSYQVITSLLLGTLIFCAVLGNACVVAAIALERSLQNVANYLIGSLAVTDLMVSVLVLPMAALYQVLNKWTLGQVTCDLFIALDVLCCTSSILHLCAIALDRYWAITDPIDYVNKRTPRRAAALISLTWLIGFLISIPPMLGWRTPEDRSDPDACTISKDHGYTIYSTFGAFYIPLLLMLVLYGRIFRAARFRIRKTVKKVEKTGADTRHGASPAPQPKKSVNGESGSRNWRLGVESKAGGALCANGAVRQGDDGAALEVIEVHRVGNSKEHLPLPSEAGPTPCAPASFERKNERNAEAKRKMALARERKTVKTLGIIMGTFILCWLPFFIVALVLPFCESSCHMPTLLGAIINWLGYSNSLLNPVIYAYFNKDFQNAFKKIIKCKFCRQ

5-HT1B = 5-HT1B (Homo sapiens, UniProt P28222); assay: PDSP screening affinity 5-HT1B; assay type: binding; details: for Ki: read-out: 5-HT1B affinity
Sequence of 5-HT1B (P28222 whole entry): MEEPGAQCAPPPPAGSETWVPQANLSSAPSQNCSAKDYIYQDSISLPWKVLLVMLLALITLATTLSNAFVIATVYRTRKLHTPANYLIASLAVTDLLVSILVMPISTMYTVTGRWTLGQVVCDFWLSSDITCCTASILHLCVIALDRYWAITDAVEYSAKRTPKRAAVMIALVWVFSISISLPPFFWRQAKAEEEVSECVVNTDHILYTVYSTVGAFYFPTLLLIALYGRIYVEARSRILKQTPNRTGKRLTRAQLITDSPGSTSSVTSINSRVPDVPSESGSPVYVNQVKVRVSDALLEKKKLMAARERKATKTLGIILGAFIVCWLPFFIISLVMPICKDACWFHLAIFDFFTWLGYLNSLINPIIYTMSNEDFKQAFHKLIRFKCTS

5-HT1D = 5-HT1D (Homo sapiens, UniProt P28221); assay: PDSP screening affinity 5-HT1D; assay type: binding
Sequence of 5-HT1D (P28221 whole entry): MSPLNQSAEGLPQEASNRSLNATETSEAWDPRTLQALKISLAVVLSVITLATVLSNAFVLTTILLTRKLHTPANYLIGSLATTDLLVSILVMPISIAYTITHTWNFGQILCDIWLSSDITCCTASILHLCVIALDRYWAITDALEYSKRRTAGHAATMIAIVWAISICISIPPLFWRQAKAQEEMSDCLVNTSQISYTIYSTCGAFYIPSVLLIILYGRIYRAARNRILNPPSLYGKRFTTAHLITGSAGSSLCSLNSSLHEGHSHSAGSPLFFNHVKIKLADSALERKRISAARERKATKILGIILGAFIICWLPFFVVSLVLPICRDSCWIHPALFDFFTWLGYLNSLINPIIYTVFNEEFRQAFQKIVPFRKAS

5-ht1e = 5-ht1e (Homo sapiens, UniProt P28566); assay: PDSP screening affinity 5-ht1e; assay type: binding
Sequence of 5-ht1e (P28566 whole entry): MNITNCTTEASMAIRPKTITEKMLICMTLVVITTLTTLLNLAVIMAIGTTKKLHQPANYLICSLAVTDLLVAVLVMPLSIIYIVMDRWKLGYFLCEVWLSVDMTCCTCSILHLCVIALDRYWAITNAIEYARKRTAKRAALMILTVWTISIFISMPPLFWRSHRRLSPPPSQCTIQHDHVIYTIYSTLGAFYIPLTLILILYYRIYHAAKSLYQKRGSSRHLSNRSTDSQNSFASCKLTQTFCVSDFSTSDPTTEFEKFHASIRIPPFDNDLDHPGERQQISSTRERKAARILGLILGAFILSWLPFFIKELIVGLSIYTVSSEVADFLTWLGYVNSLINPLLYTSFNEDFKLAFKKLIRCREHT

5-HT3 = biological target: T4, 5-HT3 (Homo sapiens, UniProt P46098); assay: PDSP screening affinity 5-HT3; assay type: binding
T4 sequence (P46098 24-478): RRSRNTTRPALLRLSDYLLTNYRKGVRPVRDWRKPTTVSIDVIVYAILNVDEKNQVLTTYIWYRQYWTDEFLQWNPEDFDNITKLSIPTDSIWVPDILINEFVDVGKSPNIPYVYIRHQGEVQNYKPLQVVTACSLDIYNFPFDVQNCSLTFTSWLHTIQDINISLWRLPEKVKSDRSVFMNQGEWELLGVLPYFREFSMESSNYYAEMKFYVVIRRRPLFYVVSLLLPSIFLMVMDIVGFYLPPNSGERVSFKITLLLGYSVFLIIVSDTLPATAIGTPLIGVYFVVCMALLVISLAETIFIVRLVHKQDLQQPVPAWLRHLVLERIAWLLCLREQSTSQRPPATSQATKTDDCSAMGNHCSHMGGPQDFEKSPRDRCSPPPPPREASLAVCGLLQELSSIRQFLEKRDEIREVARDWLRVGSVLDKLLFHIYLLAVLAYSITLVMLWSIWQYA

5-ht5a = 5-ht5a (Homo sapiens, UniProt P47898); assay: PDSP screening affinity 5-ht5a; assay type: binding
Sequence of 5-ht5a (P47898 whole entry): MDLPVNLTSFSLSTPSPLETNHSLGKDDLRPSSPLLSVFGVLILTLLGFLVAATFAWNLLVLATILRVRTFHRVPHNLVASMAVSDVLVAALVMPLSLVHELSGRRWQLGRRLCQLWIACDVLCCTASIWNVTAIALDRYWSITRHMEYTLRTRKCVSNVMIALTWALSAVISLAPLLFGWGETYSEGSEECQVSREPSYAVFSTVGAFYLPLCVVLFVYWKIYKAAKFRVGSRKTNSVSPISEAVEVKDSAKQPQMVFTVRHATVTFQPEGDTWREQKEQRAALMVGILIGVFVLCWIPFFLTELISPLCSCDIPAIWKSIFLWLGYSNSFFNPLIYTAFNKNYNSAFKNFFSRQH

5-HT6 = 5-HT6 (Homo sapiens, UniProt P50406); assay: PDSP screening affinity 5-HT6; assay type: binding
Sequence of 5-HT6 (P50406 whole entry): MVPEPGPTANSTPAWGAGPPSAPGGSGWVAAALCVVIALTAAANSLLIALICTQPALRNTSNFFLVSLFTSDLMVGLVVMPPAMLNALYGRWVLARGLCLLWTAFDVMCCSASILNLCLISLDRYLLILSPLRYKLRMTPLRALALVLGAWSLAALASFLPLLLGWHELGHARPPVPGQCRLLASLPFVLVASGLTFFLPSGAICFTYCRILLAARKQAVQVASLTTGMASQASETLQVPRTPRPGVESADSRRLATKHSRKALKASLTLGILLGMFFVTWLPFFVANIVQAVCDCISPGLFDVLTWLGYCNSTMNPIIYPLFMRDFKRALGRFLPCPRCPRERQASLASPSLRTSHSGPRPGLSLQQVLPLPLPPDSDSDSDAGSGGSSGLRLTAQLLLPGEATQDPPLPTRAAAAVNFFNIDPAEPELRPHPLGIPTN

5-HT7 = 5-HT7 (Homo sapiens, UniProt P34969); assay: PDSP screening affinity 5-HT7; assay type: binding
Sequence of 5-HT7 (P34969 whole entry): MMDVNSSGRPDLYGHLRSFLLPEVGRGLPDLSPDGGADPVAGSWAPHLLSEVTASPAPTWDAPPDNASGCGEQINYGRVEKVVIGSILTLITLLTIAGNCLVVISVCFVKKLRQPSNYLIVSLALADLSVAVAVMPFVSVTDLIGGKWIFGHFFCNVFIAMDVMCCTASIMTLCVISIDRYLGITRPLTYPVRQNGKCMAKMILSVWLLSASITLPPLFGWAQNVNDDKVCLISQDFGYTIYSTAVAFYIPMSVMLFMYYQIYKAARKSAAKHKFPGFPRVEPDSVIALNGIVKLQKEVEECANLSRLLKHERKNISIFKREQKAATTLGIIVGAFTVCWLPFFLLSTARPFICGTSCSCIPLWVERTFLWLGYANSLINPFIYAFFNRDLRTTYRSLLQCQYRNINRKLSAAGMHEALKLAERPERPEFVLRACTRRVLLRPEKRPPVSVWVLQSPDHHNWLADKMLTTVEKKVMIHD

r5-HT2A = r5-HT2A (Rattus norvegicus, UniProt P14842); assay: Ca2+ mobilization assay; assay type: cell-based
Sequence of r5-HT2A (P14842 whole entry): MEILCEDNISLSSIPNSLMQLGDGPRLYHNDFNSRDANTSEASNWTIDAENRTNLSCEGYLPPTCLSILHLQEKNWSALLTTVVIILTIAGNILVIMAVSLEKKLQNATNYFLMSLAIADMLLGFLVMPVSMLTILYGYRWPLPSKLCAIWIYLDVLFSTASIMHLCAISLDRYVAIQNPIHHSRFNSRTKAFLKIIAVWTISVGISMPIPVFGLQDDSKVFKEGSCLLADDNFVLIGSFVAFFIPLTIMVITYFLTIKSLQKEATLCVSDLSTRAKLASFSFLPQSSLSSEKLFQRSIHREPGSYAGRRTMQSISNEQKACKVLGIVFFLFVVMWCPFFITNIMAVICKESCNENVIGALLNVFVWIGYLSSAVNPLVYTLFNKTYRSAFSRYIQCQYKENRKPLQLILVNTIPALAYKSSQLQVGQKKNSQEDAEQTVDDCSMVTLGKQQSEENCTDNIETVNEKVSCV

h5-HT2A = h5-HT2A (Homo sapiens, UniProt P28223); assay: Ca2+ mobilization assay; assay type: cell-based
Sequence of h5-HT2A (P28223 whole entry): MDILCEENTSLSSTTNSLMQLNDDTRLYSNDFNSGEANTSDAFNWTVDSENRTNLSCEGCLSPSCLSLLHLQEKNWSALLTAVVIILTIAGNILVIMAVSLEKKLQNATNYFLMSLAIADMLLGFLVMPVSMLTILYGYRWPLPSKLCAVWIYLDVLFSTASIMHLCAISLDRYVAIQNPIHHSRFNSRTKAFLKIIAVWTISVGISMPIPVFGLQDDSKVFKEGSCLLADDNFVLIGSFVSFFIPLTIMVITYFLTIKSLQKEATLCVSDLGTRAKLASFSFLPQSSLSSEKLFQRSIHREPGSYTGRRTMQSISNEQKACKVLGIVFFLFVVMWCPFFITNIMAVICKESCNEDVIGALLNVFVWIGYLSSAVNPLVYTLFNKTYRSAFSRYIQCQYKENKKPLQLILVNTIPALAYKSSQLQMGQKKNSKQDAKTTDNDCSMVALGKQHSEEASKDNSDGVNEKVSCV

h5-HT2B = h5-HT2B (Homo sapiens, UniProt P41595); assay: Ca2+ mobilization assay; assay type: cell-based
Sequence of h5-HT2B (P41595 whole entry): as the sequence (P41595 whole entry) above

r5-HT2C = biological target: T5, r5-HT2C (Rattus norvegicus, UniProt P08909); assay: Ca2+ mobilization assay; assay type: cell-based
T5 sequence (P08909 33-460): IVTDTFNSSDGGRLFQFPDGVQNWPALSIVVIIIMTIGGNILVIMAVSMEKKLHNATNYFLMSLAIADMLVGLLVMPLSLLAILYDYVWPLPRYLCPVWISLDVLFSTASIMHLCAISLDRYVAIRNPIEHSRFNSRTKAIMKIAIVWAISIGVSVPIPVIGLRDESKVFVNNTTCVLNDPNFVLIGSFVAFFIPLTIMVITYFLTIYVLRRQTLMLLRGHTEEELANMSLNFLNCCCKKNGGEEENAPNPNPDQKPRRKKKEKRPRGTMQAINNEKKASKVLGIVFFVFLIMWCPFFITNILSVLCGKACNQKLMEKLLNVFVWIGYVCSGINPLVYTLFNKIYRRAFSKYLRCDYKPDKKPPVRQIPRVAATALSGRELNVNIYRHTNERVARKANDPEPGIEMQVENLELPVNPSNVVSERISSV

h5-HT2C = biological target: T6, h5-HT2C (Homo sapiens, UniProt P28335); assay: Ca2+ mobilization assay; assay type: cell-based
T6 sequence (P28335 33-458): T2 sequence (P28335 33-458)

Male C57BL/6J mice = assay: Mouse head twitch response; details: for max counts: HTR counts
[5] = [125I]DOI, n = 3–5 displacement curves
[6] = percentage of the maximum response to 5-HT

T1 sequence (P28223 whole entry): as the sequence (P28223 whole entry) above

COc1ccc2[nH]cc(CCN(C(C)C)C(C)C)c2c1 [5-MeO–DIPT, 5-MeO-N,N-diisopropyltryptamine]
doses producing the head twitch in mice (mice): ≤ 1 mg/kg

CCCSc1cc(OC)c(CCN)cc1OC [Compound 2C-T-7, 2,5-dimethoxy-4-propylthiophenethylamine]
doses producing the head twitch in mice (mice): ≤ 1 mg/kg

COc1ccc2[nH]cc(CCN(C)C)c2c1 [Compound 5-MeO-DMT, 5-MeO-N,N-dimethyltryptamine]
active dose range, head twitch (mice; ref 36−38): 3 to 30 mg/kg

COc1ccc2[nH]cc(CCNCc3cccc(I)c3)c2c1 [Compound 5i, N-(3-Iodobenzyl)-2-(5-methoxy-1H-indol-3-yl)ethan-1-amine]
Ki (5-HT2A receptor [1]): 3.47 nM | Ki (5-HT2A receptor [2]): 0.62 nM | h5-HT2A Ki (5-HT2A receptor [2]; [125I]DOI): subnanomolar affinity | Ki (human 5-HT2C receptor [3]): 6.46 nM | Ki (human 5-HT2C receptor [4]): 1.05 nM | Ki (5-HT2B; 5-HT2B affinity): 0.76 nM | Ki (5-HT1A; 5-HT1A affinity): 122 nM | 5-HT1B pKi ± SEM (5-HT1B): 5.53 ± 0.05 | Ki (5-HT1B): 2960 nM | Ki (5-HT1D): 199 nM | Ki (5-ht1e): > 10000 nM | Ki (5-HT3): > 10000 nM | Ki (5-ht5a; 5-ht5a affinity): 1540 nM | Ki (5-HT6; 5-HT6 affinity): 27 nM | Ki (5-HT6; 5-HT6 pKi ± SEM): 26.3 nM | Ki (5-HT7; 5-HT7 pKi ± SEM): 21.9 nM | EC50 (r5-HT2A; r5-HT2A EC50, Ca2+ mobilization): 120 nM | Emax (r5-HT2A; read-out: r5-HT2A Emax, percentage of the maximum response to 5-HT): 73.4 ± 1.4% | EC50 (h5-HT2A): 16 nM | Emax (h5-HT2A; HEK293, read-out: h5-HT2A Emax, percentage of the maximum response to 5-HT): 79 ± 1.1% | Emax (h5-HT2B; HEK293, read-out: h5-HT2B Emax): 31 ± 2% | EC50 (h5-HT2B; h5-HT2B EC50, Ca2+ mobilization): 43 nM | EC50 (r5-HT2C; r5-HT2C EC50, Ca2+ mobilization): 313 nM | EC50 (r5-HT2C; r5-HT2C pEC50 ± SEM, Ca2+ mobilization): 309 nM | Emax (r5-HT2C; read-out: r5-HT2C Emax): 110 ± 3% | Emax (h5-HT2C; HEK293, read-out: h5HT2C Emax): 94 ± 5% | EC50 (h5-HT2C; h5HT2C EC50, Ca2+ mobilization): 445 nM | max counts (Male C57BL/6J mice; SC): 20.2 | ED50 (Male C57BL/6J mice; Mus musculus, sc, read-out: ED50 mg/kg (95% CI), mouse head twitch): 7.77 mg/kg | magnitude of peak effect × vehicle (Male C57BL/6J mice; SC, mouse head twitch): 3.4 × vehicle | maximally effective dose (Male C57BL/6J mice; SC, mouse head twitch): 30 mg/kg

COc1ccc2[nH]cc(CCNCc3cccc(C)c3)c2c1 [Compound 5j, N-(3-Methylbenzyl)-2-(5-methoxy-1H-indol-3-yl)ethan-1-amine]
h5-HT2A pKi ± SEM (5-HT2A receptor [1]; [3H]ketanserin, n = 3–5 displacement curves): 8.32 ± 0.17 | Ki (5-HT2A receptor [1]; read-out: h5-HT2A Ki, [3H]ketanserin): 4.79 nM | h5-HT2A pKi ± SEM (5-HT2A receptor [2]; [5]): 8.93 ± 0.11 | selectivity h5-HT2A versus h5-HT2C, affinity at the [125I]-DOI-labeled receptors (5-HT2A receptor [2]; agonist-labeled receptors): < 3 fold | Ki (5-HT2A receptor [2]; read-out: h5-HT2A Ki, [125I]DOI): 1.17 nM | h5-HT2C pKi ± SEM (human 5-HT2C receptor [3]; [3H]mesulergine, n = 3–5 displacement curves): 7.65 ± 0.03 | Ki (human 5-HT2C receptor [3]; read-out: h5-HT2C Ki, [3H]mesulergine): 22.4 nM | h5-HT2C pKi ± SEM (human 5-HT2C receptor [4]; [5]): 8.47 ± 0.08 | Ki (human 5-HT2C receptor [4]; read-out: h5-HT2C Ki, [125I]DOI): 3.39 nM | 5-HT2B pKi ± SEM (5-HT2B): 8.71 ± 0.03 | Ki (5-HT2B; read-out: 5-HT2B affinity): 1.9 nM | 5-HT1A pKi ± SEM (5-HT1A): 6.57 ± 0.04 | Ki (5-HT1A; read-out: 5-HT1A affinity): 271 nM | 5-HT1B pKi ± SEM (5-HT1B): 5.37 ± 0.07 | Ki (5-HT1B): 4240 nM | 5-HT1D pKi ± SEM (5-HT1D; PDSP screening, human): 6.55 ± 0.06 | Ki (5-HT1D; read-out: 5-HT1D affinity, PDSP screening, human): 283 nM | 5-ht1e pKi ± SEM (5-ht1e; PDSP screening, human): 5.41 ± 0.05 | Ki (5-ht1e; read-out: 5-ht1e affinity, PDSP screening, human): 3880 nM | Ki (5-HT3; read-out: 5-HT3 affinity, PDSP screening, human): > 10000 nM | 5-ht5a pKi ± SEM (5-ht5a): 5.41 ± 0.06 | Ki (5-ht5a; read-out: 5-ht5a affinity): 3850 nM | 5-HT6 pKi ± SEM (5-HT6): 7.21 ± 0.03 | Ki (5-HT6; read-out: 5-HT6 affinity): 62 nM | 5-HT7 pKi ± SEM (5-HT7): 6.67 ± 0.05 | Ki (5-HT7; read-out: 5-HT7 affinity): 212 nM | r5-HT2A pEC50 ± SEM (r5-HT2A; Ca2+ mobilization): 7.6 ± 0.04 | r5-HT2A Emax (r5-HT2A; [6]): 56.2 ± 0.9% | EC50 (r5-HT2A; read-out: r5-HT2A EC50, Ca2+ mobilization): 26 nM | h5-HT2A pEC50 ± SEM (h5-HT2A; Ca2+ mobilization): 8.2 ± 0.04 | selectivity in function h5-HT2A vs h5-HT2C (h5-HT2A; Ca2+ mobilization): 44 fold | h5-HT2A Emax (h5-HT2A; [6]): 73.3 ± 1.0% | EC50 (h5-HT2A; read-out: h5-HT2A EC50, Ca2+ mobilization): 6.5 nM | h5-HT2B pEC50 ± SEM (h5-HT2B; Ca2+ mobilization, NA = not active, Emax ≤ 15%): NA ^b (NA, not active; Emax ≤ 15%) | r5-HT2C pEC50 ± SEM (r5-HT2C; Ca2+ mobilization): 6.72 ± 0.04 | r5-HT2C Emax (r5-HT2C; [6]): 104 ± 2% | EC50 (r5-HT2C; read-out: r5-HT2C EC50, Ca2+ mobilization): 192 nM | h5HT2C pEC50 ± SEM (h5-HT2C; Ca2+ mobilization): 6.54 ± 0.10 | h5HT2C Emax (h5-HT2C; [6]): 75 ± 4% | EC50 (h5-HT2C; read-out: h5HT2C EC50, Ca2+ mobilization): 289 nM | max counts (Male C57BL/6J mice; SC): 14.6 | active doses (Male C57BL/6J mice; SC, mouse head twitch): 10 mg/kg | magnitude of peak effect × vehicle (Male C57BL/6J mice; SC, mouse head twitch): 3.5 × vehicle | maximally effective dose (Male C57BL/6J mice; SC, mouse head twitch): 10 mg/kg | HTR at 30 mg/kg (Male C57BL/6J mice; biphasic bell-shaped dose–response, 30 mg/kg SC): inactive
